{"source": "the OligoGym collection", "target": "APOL1", "details": "ASO", "note": "“And” between values parts separate entries of the source, which are not always exact repeats. Equal entries are not always repeated. After the bases stand the sugars from the 5' end (letter, count) and the backbone: PS all phosphorothioate, else s phosphorothioate and o phosphodiester by linkage. Methylation of C is not given here. e = 2'-O-(2-methoxyethyl) (MOE); k = constrained ethyl (cEt); d = 2'-deoxy (DNA)"}
{"sequence": "TCCGTCAATATATTCT (sugars k2 d4 e3 k2 d5, PS)", "values": [{"measurement": "target mRNA inhibition", "setting": "A431, 0.0156 µM", "value": 27, "unit": "%"}, {"measurement": "target mRNA inhibition", "setting": "A431, 0.0625 µM", "value": 59, "unit": "%"}, {"measurement": "target mRNA inhibition", "setting": "A431, 0.25 µM", "value": 84, "unit": "%"}, {"measurement": "target mRNA inhibition", "setting": "A431, 1 µM", "value": 93, "unit": "%"}, {"measurement": "target mRNA inhibition", "setting": "A431, 2 µM", "value": 96, "unit": "%"}]}
{"sequence": "TCCGTCAATATATTCT (sugars kkddddekekeddddd, PS)", "values": [{"measurement": "target mRNA inhibition", "setting": "A431, 0.0156 µM", "value": 33, "unit": "%"}, {"measurement": "target mRNA inhibition", "setting": "A431, 0.04 µM", "value": 50, "unit": "%"}, {"measurement": "target mRNA inhibition", "setting": "A431, 0.0625 µM", "value": 61, "unit": "%"}, {"measurement": "target mRNA inhibition", "setting": "A431, 0.25 µM", "value": 86, "unit": "%"}, {"measurement": "target mRNA inhibition", "setting": "A431, 1 µM", "value": 96, "unit": "%"}, {"measurement": "target mRNA inhibition", "setting": "A431, 2 µM", "value": 97, "unit": "%"}]}
{"sequence": "TCCTTGCTGCACTGCC (sugars k4 d9 k3, PS)", "values": [{"measurement": "target mRNA inhibition", "setting": "A431, 0.0625 µM", "value": 67, "unit": "%"}, {"measurement": "target mRNA inhibition", "setting": "A431, 0.25 µM", "value": 88, "unit": "%"}, {"measurement": "target mRNA inhibition", "setting": "A431, 1 µM", "value": 95, "unit": "%"}]}
{"sequence": "TCTATTAGAGGGCTAG (sugars kdddddkekekddddd, PS)", "values": [{"measurement": "target mRNA inhibition", "setting": "A431, 2 µM", "value": 42, "unit": "%"}]}
{"sequence": "TCTATTAGAGGGCTAG (sugars kddddkekekeddddd, PS)", "values": [{"measurement": "target mRNA inhibition", "setting": "A431, 2 µM", "value": 37, "unit": "%"}]}
{"sequence": "TCTATTAGAGGGCTAG (sugars kkddddekekeddddd, PS)", "values": [{"measurement": "target mRNA inhibition", "setting": "A431, 2 µM", "value": 67, "unit": "%"}]}
{"sequence": "TCTCATGGTACAGGAG (sugars kdddddkekekddddd, PS)", "values": [{"measurement": "target mRNA inhibition", "setting": "A431, 2 µM", "value": 61, "unit": "%"}]}
{"sequence": "TCTGTTAGATACAAAC (sugars k4 d9 k3, PS)", "values": [{"measurement": "target mRNA inhibition", "setting": "A431, 0.0625 µM", "value": 34, "unit": "%"}, {"measurement": "target mRNA inhibition", "setting": "A431, 0.25 µM", "value": 63, "unit": "%"}, {"measurement": "target mRNA inhibition", "setting": "A431, 1 µM", "value": 78, "unit": "%"}]}
{"sequence": "TGAACGCAATGCTGAC (sugars k4 d9 k3, PS)", "values": [{"measurement": "target mRNA inhibition", "setting": "A431, 0.0625 µM", "value": 32, "unit": "%"}, {"measurement": "target mRNA inhibition", "setting": "A431, 0.25 µM", "value": 74, "unit": "%"}, {"measurement": "target mRNA inhibition", "setting": "A431, 1 µM", "value": 90, "unit": "%"}]}
{"sequence": "TGAAGATTGGCTCTGG (sugars k3 d4 k3 e1 d5, PS)", "values": [{"measurement": "target mRNA inhibition", "setting": "A431, 2 µM", "value": 61, "unit": "%"}]}
{"sequence": "TGATGTGGGACTTGTT (sugars k4 d9 k3, PS)", "values": [{"measurement": "target mRNA inhibition", "setting": "A431, 0.0625 µM", "value": 61, "unit": "%"}, {"measurement": "target mRNA inhibition", "setting": "A431, 0.25 µM", "value": 84, "unit": "%"}, {"measurement": "target mRNA inhibition", "setting": "A431, 1 µM", "value": 93, "unit": "%"}]}
{"sequence": "TGGGAATTATGGAATT (sugars kkddddekekeddddd, PS)", "values": [{"measurement": "target mRNA inhibition", "setting": "A431, 2 µM", "value": 78, "unit": "%"}]}
{"sequence": "TGGGCGAGCGATTGTC (sugars k4 d9 k3, PS)", "values": [{"measurement": "target mRNA inhibition", "setting": "A431, 0.0625 µM", "value": 42, "unit": "%"}, {"measurement": "target mRNA inhibition", "setting": "A431, 0.25 µM", "value": 70, "unit": "%"}, {"measurement": "target mRNA inhibition", "setting": "A431, 1 µM", "value": 83, "unit": "%"}]}
{"sequence": "TGGTCACAGTTCTTGG (sugars k4 d9 k3, PS)", "values": [{"measurement": "target mRNA inhibition", "setting": "A431, 0.0625 µM", "value": 80, "unit": "%"}, {"measurement": "target mRNA inhibition", "setting": "A431, 0.25 µM", "value": 90, "unit": "%"}, {"measurement": "target mRNA inhibition", "setting": "A431, 1 µM", "value": 95, "unit": "%"}]}
{"sequence": "TGGTTCAAAAGCAGCA (sugars k2 d4 e3 k2 d5, PS)", "values": [{"measurement": "target mRNA inhibition", "setting": "A431, 0.0156 µM", "value": 41, "unit": "%"}, {"measurement": "target mRNA inhibition", "setting": "A431, 0.0625 µM", "value": 68, "unit": "%"}, {"measurement": "target mRNA inhibition", "setting": "A431, 0.25 µM", "value": 85, "unit": "%"}, {"measurement": "target mRNA inhibition", "setting": "A431, 1 µM", "value": 91, "unit": "%"}, {"measurement": "target mRNA inhibition", "setting": "A431, 2 µM", "value": 93, "unit": "%"}]}
{"sequence": "TGTAAGTGCAACCAAT (sugars kkddddkekekkdddd, PS)", "values": [{"measurement": "target mRNA inhibition", "setting": "A431, 2 µM", "value": 43, "unit": "%"}]}
{"sequence": "TGTATTTCTTGATGTG (sugars kkkddddkekeddddd, PS)", "values": [{"measurement": "target mRNA inhibition", "setting": "A431, 2 µM", "value": 71, "unit": "%"}]}
{"sequence": "TGTGCTCAGCTATGGA (sugars k4 d9 k3, PS)", "values": [{"measurement": "target mRNA inhibition", "setting": "A431, 0.0625 µM", "value": "41% and 55%"}, {"measurement": "target mRNA inhibition", "setting": "A431, 0.25 µM", "value": "70% and 74%"}, {"measurement": "target mRNA inhibition", "setting": "A431, 1 µM", "value": "88% and 87%"}]}
{"sequence": "TGTTATATTTGATCCT (sugars k3 d10 k3, PS)", "values": [{"measurement": "target mRNA inhibition", "setting": "A431, 0.0625 µM", "value": 67, "unit": "%"}, {"measurement": "target mRNA inhibition", "setting": "A431, 0.25 µM", "value": 90, "unit": "%"}, {"measurement": "target mRNA inhibition", "setting": "A431, 1 µM", "value": 98, "unit": "%"}]}
{"sequence": "TGTTATATTTGATCCT (sugars kddddkekekeddddd, PS)", "values": [{"measurement": "target mRNA inhibition", "setting": "A431, 2 µM", "value": 51, "unit": "%"}]}
{"sequence": "TGTTATATTTGATCCT (sugars kkddddkekekkdddd, PS)", "values": [{"measurement": "target mRNA inhibition", "setting": "A431, 2 µM", "value": 46, "unit": "%"}]}
{"sequence": "TGTTATATTTGATCCT (sugars kkkddddkekeddddd, PS)", "values": [{"measurement": "target mRNA inhibition", "setting": "A431, 2 µM", "value": 71, "unit": "%"}]}
{"sequence": "TGTTTGCATTTGGGTC (sugars k4 d9 k3, PS)", "values": [{"measurement": "target mRNA inhibition", "setting": "A431, 0.0625 µM", "value": "90% and 83%"}, {"measurement": "target mRNA inhibition", "setting": "A431, 0.25 µM", "value": "98% and 94%"}, {"measurement": "target mRNA inhibition", "setting": "A431, 1 µM", "value": "99% and 96%"}]}
{"sequence": "TTACATGCACGATCTC (sugars k3 d10 k3, PS)", "values": [{"measurement": "target mRNA inhibition", "setting": "A431, 0.0625 µM", "value": 18, "unit": "%"}, {"measurement": "target mRNA inhibition", "setting": "A431, 0.25 µM", "value": 56, "unit": "%"}, {"measurement": "target mRNA inhibition", "setting": "A431, 1 µM", "value": 78, "unit": "%"}]}
{"sequence": "TTATATTTGATCCTCA (sugars k2 d4 e3 k2 d5, PS)", "values": [{"measurement": "target mRNA inhibition", "setting": "A431, 2 µM", "value": 96, "unit": "%"}]}
{"sequence": "TTATATTTGATCCTCA (sugars kkddddkekekddddd, PS)", "values": [{"measurement": "target mRNA inhibition", "setting": "A431, 2 µM", "value": 91, "unit": "%"}]}
{"sequence": "TTATGAAATTATTGGT (sugars k2 d4 e3 k2 d5, PS)", "values": [{"measurement": "target mRNA inhibition", "setting": "A431, 2 µM", "value": 39, "unit": "%"}]}
{"sequence": "TTATGAAATTATTGGT (sugars kkdddddkekeddddd, PS)", "values": [{"measurement": "target mRNA inhibition", "setting": "A431, 2 µM", "value": 63, "unit": "%"}]}
{"sequence": "TTCTATTAGAGGGCTA (sugars k2 d4 e4 k2 d4, PS)", "values": [{"measurement": "target mRNA inhibition", "setting": "A431, 2 µM", "value": 76, "unit": "%"}]}
{"sequence": "TTCTATTGGGCCTCAG (sugars k4 d9 k3, PS)", "values": [{"measurement": "target mRNA inhibition", "setting": "A431, 0.0625 µM", "value": 74, "unit": "%"}, {"measurement": "target mRNA inhibition", "setting": "A431, 0.25 µM", "value": 87, "unit": "%"}, {"measurement": "target mRNA inhibition", "setting": "A431, 1 µM", "value": 94, "unit": "%"}]}
{"sequence": "TTCTCATGGTACAGGA (sugars kkdddddkekeddddd, PS)", "values": [{"measurement": "target mRNA inhibition", "setting": "A431, 2 µM", "value": 78, "unit": "%"}]}
